Patent US20080227640A1, “Plant Growth Regulation” (Bayer CropScience GmbH, priority 2004, published 2008)

Columns and labels:
[1] = system: wheat (Triticum aestivum, variety "TRISO"); assay: Root growth assay, seed treatment, wheat; type: in vivo; conditions: Root Growth of 100 set as standard (untreated control), wet root weight 16 (±2) days post treatment
Source text: (§1) Plant roots are a highly proliferative tissue which allows to be seen as a reliable target organ in order to screen for plant growth regulators. The results obtained are regarded as an indication for the overall effects on a plant of plant growth regulators identified by such a system. By using this root assay one is enabled to determine the effect of a seed treatment to root growth and/or germination and/or changes in habitat of germinated plants in order to identify the possible use as a yield enhancer. Two seeds of wheat (Triticum aestivum, variety “TRISO”) or 1 seed of maize (Zea mays, variety “LORENZO”) per hole in a plastic tray which contains an architecture of 8×13 holes were placed on compost soil covered with sand. These seeds were treated with 100 μl/hole, which creates an application volume of approx. 1200 l/ha, of a compound solution at active ingredient rates equivalent to 100, 10 and 1 g a.i./ha of each compound using an robotic application system (Lizzy Spray Robotics). Six replicates in a row of each compound and concentration were done. The outer rim of the above defined plastic tray was untreated to avoid false negative effects and the middle row (No. 7) was used as untreated control. The treated seeds were allowed to dry for approx. 4 hours and subsequently covered with sand and watered. The trays were stored in climate chambers with 14 hours lighting at a temperature of 24° C. (±2) at daytime and 16° C. (±2) at night and relative humidity (rH) of 60% and daily watered. Assessments were done 16 (±2) days post treatment by counting the germinated plants and assessing the phytotoxicity symptoms and percentage. In addition, the roots were washed out and the shoots were cut directly above the seed and the wet roots were placed on dry paper towels for approximately 30 minutes and weighted afterwards. This procedure provides a similar grade of moisture to the roots so that a comparison of the weights is possible.
(§2) The effects observed concerning Root Growth given in column 2 (Root Growth of “100” is set as the standard) are directed to concentrations that are equivalent to 100, 10, 1 g a.i./ha, each.

[2] = system: maize (Zea mays, variety "LORENZO"); assay: Root growth assay, seed treatment, maize; type: in vivo; conditions: Root Growth of 100 set as standard (untreated control), wet root weight 16 (±2) days post treatment
Source text: as §1, §2

Row | Compound | Root Growth ([1]; 1 g a.i./ha) | Root Growth ([1]; 10 g a.i./ha) | Root Growth ([1]; 100 g a.i./ha) | Root Growth ([2]; 1 g a.i./ha) | Root Growth ([2]; 10 g a.i./ha) | Root Growth ([2]; 100 g a.i./ha)
1 | O=C1Nc2ccc(I)cc2C1=NNc1ncc(C(F)(F)F)cc1Cl [Compound 1.1] | 209 | 93 | 170 |  |  | 
2 | O=C1Nc2ccc(Br)cc2C1=NNc1c(F)c(F)cc(F)c1F [Compound 1.2] | 198 | 228 | 274 | 69 | 116 | 567
3 | O=C1Nc2ccc(Br)cc2C1=NNc1ccc(Cl)cc1 [Compound 1.4] |  |  |  | 105 | 125 | 99
4 | O=C1Nc2ccc(Br)cc2C1=NNc1cc(Cl)cc(Cl)c1 [Compound 1.5] | 149 | 117 | 161 |  |  | 
5 | Cc1ccc(NN=C2C(=O)Nc3ccc(Br)cc32)cc1 [Compound 1.6] |  |  |  | 149 | 140 | 137
6 | O=C1Nc2ccc([N+](=O)[O-])cc2C1=NNc1ncc(C(F)(F)F)cc1Cl [Compound 1.8] |  |  |  | 174 | 100 | 48
7 | O=C1Nc2ccc(Cl)cc2C1=NNc1cccc([N+](=O)[O-])c1 [Compound 1.10] |  |  |  | 126 | 107 | 102
8 | Cc1ccc(NN=C2C(=O)Nc3ccc([N+](=O)[O-])cc32)cc1Cl [Compound 1.12] |  |  |  | 148 | 88 | 114
9 | O=C1Nc2ccc(F)cc2C1=NNc1c(F)c(F)cc(F)c1F [Compound 1.18] |  |  |  | 150 | 85 | 170
10 | NS(=O)(=O)c1ccc(NN=C2C(=O)Nc3ccc(F)cc32)cc1 [Compound 1.23, 4-[2-(5-Fluoro-2-oxo-1,2-dihydro-3H-indol-3-ylidene)-hydrazino]-benzenesulfonamide] | 135 | 61 | 65 |  |  | 
11 | O=C1Nc2ccc(I)cc2/C1=C1/Nc2ccccc2/C1=N\O [Compound 2.1, 5-Iodoindirubin-3′-oxime] | 135 | 151 | 122 |  |  | 
12 | CCON=C1C(=C2C(=O)Nc3ccc(Br)cc32)Nc2ccccc21 [Compound 2.4, 5-Bromoindirubin-3′-ethyloxime] | 184 | 115 | 62 |  |  | 
13 | O=C1Nc2ccc(F)cc2C1=C1Nc2ccccc2C1=NO [Compound 2.7] | 182 | 390 | 172 | 174 | 159 | 118
